Reference: patent US11040117B2, “Treatment of a subtype of ASD” (Stalicla S.A., priority 2017, dated 2021)

Test system: ASD phenotype 1 lymphoblastoid cell lines
Assay: Biolog Phenotype Mammalian MicroArrays (PM-M): NADH production, colorimetric redox dye
Type: cell-based, human
Details: cells exposed to the substance; AUC and endpoint absorbance
Method: From all subjects, blood samples were collected and lymphoblastoid cell lines generated. Briefly, tubes containing anticoagulant citrate dextrose (ACD) were used to collect blood samples via venipuncture, in order to ensure that the blood cells remained metabolically active. The tubes were kept at room temperature and processed within 24 hours.
Cell lines were obtained by immortalization of lymphocytes from blood samples using Epstein-Barr virus.
Energy production of cells was measured using commercially available Phenotype Mammalian MicroArrays (PM-Ms, Biolog, Hayward, Calif., USA).
The compound in each well was designed to be used by the cells, either as the sole energy source or as the metabolic effector influencing the utilization of an energy source (α-D-glucose) added in the cell suspension. […] Before plating, cell viability and number were assessed utilizing a BioRad cell counter and a trypan blue dye. The concentration of live cells required for plating was 4×10^5 cells/mL, corresponding to 20,000 cells per well in a volume of 50 μL. […] Cells were incubated for 48 h at 37° C. in 5% CO2, using the modified Biolog IF-M1 medium.
The Biolog IF-M1 medium was modified for plates PM-M1 to M4 by adding the following to 100 mL of Biolog IF-M1: 1.1 mL of 100× penicillin/streptomycin solution, 0.16 mL of 200 mM glutamine (final concentration 0.3 mM), and 5.3 mL of Fetal Bovine Serum (FBS, final concentration 5%). For plates PM-M5 to M8, 5.5 mM α-D-glucose will be added in place of FBS.
During the 48-hour incubation, the only energy source the cells had was the chemical in the well. After this first incubation, Biolog Redox Dye Mix MB was added (10 μL/well) and the plates were incubated under the same conditions for an additional 24 hours. As the cells metabolized the energy source, tetrazolium dye in the media was reduced, producing a purple color according to the amount of NADH generated.
For the last 24 hours of the experiment, the plates were incubated in the Omnilog system, which collects optical density readings every 15 minutes, generating 96 data-points for each well. The system also elaborated the kinetic curve for the metabolic reaction in each well and extrapolated parameters such as slope, highest point, endpoint, area under the curve (AUC), and lag.
At the end of the 24-hour incubation, the plates were analyzed utilizing a microplate reader with readings at 590 and 750 nm. The first value (A590) indicated the highest absorbance peak of the redox dye and the second value (A750) gave a measure of the background noise. The relative absorbance (A590-750) was calculated per well.

IL-1beta: Th1 cytokine
production of NADH in ASD phenotype 1 cells compared to TDs and non-phenotype 1 cells: significantly lower levels of NADH

FGF-1(aFGF): growth factor that selectively targets the PI3K-Akt-mTOR by binding the receptor tyrosine kinase
production of NADH in ASD phenotype 1 cells compared to TDs and non-phenotype 1 cells: significantly reduced production of NADH

hGH(Somatotropin): growth factor that selectively targets the PI3K-Akt-mTOR by binding the receptor tyrosine kinase
production of NADH in ASD phenotype 1 cells compared to TDs and non-phenotype 1 cells: significantly reduced production of NADH

IL-6: Th1 cytokine
production of NADH in ASD phenotype 1 cells compared to TDs and non-phenotype 1 cells: significantly lower levels of NADH

IGF-I: insulin-like growth factor 1; targets less specifically the PI3K-AKT-mTOR pathway in LCLs
production of NADH in ASD phenotype 1 cells compared to TDs and non-phenotype 1 cells: no significant differences

PDGF-AB: platelet-derived growth factor AB
production of NADH in ASD phenotype 1 cells compared to TDs and non-phenotype 1 cells: no significant differences
